The source of these data is BindingDB's records for patent US10428104 (Pfizer Inc., 2019).

Each structure is given as a SMILES string.

Sequence of Protein arginine N-methyltransferase 5 (O14744 whole entry): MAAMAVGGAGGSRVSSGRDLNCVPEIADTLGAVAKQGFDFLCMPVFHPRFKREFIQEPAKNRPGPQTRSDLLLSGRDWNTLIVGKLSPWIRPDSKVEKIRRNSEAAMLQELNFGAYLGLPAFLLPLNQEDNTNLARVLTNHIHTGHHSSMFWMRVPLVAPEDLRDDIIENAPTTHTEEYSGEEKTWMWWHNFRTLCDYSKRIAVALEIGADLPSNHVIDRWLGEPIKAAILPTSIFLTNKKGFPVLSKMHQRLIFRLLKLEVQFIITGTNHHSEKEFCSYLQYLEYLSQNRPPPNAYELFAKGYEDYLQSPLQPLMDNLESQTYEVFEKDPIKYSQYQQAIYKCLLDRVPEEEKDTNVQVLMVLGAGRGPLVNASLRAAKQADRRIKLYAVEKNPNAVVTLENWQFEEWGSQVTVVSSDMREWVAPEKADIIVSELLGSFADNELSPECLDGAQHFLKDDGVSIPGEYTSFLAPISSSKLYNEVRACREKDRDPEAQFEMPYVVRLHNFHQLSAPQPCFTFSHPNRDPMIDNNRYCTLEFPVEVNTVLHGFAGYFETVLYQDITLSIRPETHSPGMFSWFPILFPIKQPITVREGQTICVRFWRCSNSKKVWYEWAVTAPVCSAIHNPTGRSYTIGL

The target in the assay is Protein arginine N-methyltransferase 5 (Homo sapiens, UniProt O14744). In words: PRMT5 assay. The procedure:
Following dilution, 1 ul was added to an empty 96-well microtiter plate. PRMT5/MEP50 protein complex was combined with H4(1-21) peptide ([…]) in PRMT5 assay buffer (50 mM Tris pH 8.5, 50 mM NaCl, 5 mM MgCl2, 1 mM EDTA, 1 mM TCEP) and 44 ul was added to the microtiter plate containing compound. S-Adenosyl-L-methionine (SAM) was prepared by combining 3H labelled SAM with unlabelled SAM in PRMT5 assay buffer such that the final SAM concentration was 10 uM and the specific activity was 0.2 uCi/ul. The reaction was initiated by adding 5 ul of SAM stock to the microtiter plate. The final reaction conditions were 10 nM PRMT5/MEP50 complex, 200 nM peptide and 1 uM SAM. Following a 25 minute incubation at room temperature, the reaction was stopped with the addition of 100 uL of 20% TCA. The 3H-peptide product was captured using a 96-well filter plate (MSIPN4B, Millipore) and washed 5 times with PBS buffer. Scintillation fluid (100 ul) was added to the dried filter plate and counted in a liquid scintillation counter. IC50 values were determined by fitting the data to the standard 4-parameter dose response equation using Pfizer proprietary software.
With `Cc1ncnc2c1ccn2[C@@H]1O[C@H]([C@H](O)c2cnn(C)c2)[C@@H](O)[C@H]1O` [US10428104, Example 50], half-maximal inhibition (IC50) was put at 50 nM.

As to `Cc1ncnc2c1ccn2[C@@H]1O[C@H]([C@@H](O)c2cnn(C)c2)[C@@H](O)[C@H]1O` [US10428104, Example 51], 14700 nM corresponded to half-maximal inhibition (IC50).

For the compound `Cc1ncnc2c1ccn2[C@@H]1O[C@H]([C@H](O)c2cccc3cc[nH]c23)[C@@H](O)[C@H]1O` [US10428104, Example 82], the IC50 (as a rule, the point on the concentration scale where inhibition reaches its midpoint) is 150 nM.
